The values below come from patent US8445028B2, “Echinoderm-derived extracts, methods of preparation and uses thereof” (Rival, S.E.C., priority 2008, dated 2013).

The nature of the test: Oxygen Radical Absorption Capacity (ORAC) assay, fluorescein/AAPH, Trolox equivalents. The format is biochemical. Particulars: pure antioxidants, analyses performed in the present studies; Table IV. An excerpt: The Oxygen Radical Absorption Capacity (ORAC) assay is commonly used to measure the antioxidative capacity of various antioxidants. The ORAC assay provides an effective measure of antioxidant protection afforded to physiologically important biomolecules such as proteins. ORAC assays that may be used in the present invention include, for example, those described in U.S. Pat. No. 6,060,324, Methods in Enzymology (1999) 299: 50-62 (Cao and Prior), and Ou et al., 2001. J. Agric. Food Chem. 49: 4619-4626. […] Unless otherwise stated, the ORAC values are expressed as a TroloxTM equivalent value per gram of extract. Antioxidant properties of extracts were estimated using the Oxygen Radical Absorption Capacity (ORAC) method. The analytical procedure has been adapted from a published method (Ou et al., 2001. J. Agric. Food Chem. 49: 4619-4626), using 96-well microplates and a […] spectrofluorometer (Molecular Devices Corporation, Sunnyvale, Calif., USA). After appropriate dilution (typically between 1/100 to 1/1000), a 30-μl aliquot of the extract was added to each well in which 150 μl of 1.04 μM fluorescein and 30 μl of 162 mM 2,2'-azobis (2-amidinopropane) hydrochloride (AAPH) were previously added. TroloxTM (6-hydroxy-2,5,7,8-tetramethylchroman-2-carboxylic acid), a water soluble analog of vitamin E, was used as positive control, and phosphate buffer pH 7.4 was used as the analytical blank. The reactive mixture was incubated at 37.5° C. for 90 min. Final results were calculated as a function of the difference between the surface under the curves between blanks and extracts, and the antioxidant properties expressed as ORAC values in equivalent micromolar of TroloxTM by dry weight of the sample (μmol TE/g extract).

On to `Cc1c(C)c2c(c(C)c1O)CC[C@@](C)(CCC[C@H](C)CCC[C@H](C)CCCC(C)C)O2` [α-Tocopherol], for which the ORAC values is 5657 μmol TE/g dry extract.

With `CC1=C(/C=C/C(C)=C/C=C/C(C)=C/C=C/C=C(C)/C=C/C=C(C)/C=C/C2=C(C)CCCC2(C)C)C(C)(C)CCC1` [β-carotene], the ORAC values came out at 3183 μmol TE/g dry extract.

Regarding Catechin, the ORAC values was 16601 μmol TE/g dry extract.
